Literature values as cited in patent publication US7632656B2, “High performance liquid chromatography with an aqueous mobile phase for analysis of drug and its metabolite” (Cellseed Inc., priority 2003, dated 2009).

Conditions: listed with the structures of the CYP probe drugs; method not stated

Structure (SMILES)	logP
CCOc1ccc(NC(C)=O)cc1 [Phenacetin]	0.985
CC12CCC(=O)C=C1CCC1C2CCC2(C)C(O)CCC12 (centres unmarked) [Testosterone]	2.899
